{"source": "patent US20050239717A1", "about": "“Higher fullerenes useful as radical scavengers” (Nano-C, Inc., priority 2003, published 2005)", "assay": "Radical scavenging efficiency test: cigarette smoke bubbled through coarse glass frit into decalin with scavenger, DHR 6G fluorescent probe", "conditions": "150 μM to 300 μM, FIG. 6B", "experimental": "Tests were conducted to study the effectiveness of higher fullerenes against radicals present in cigarette smoke (predominantly peroxyl radical). The cigarette smoke was bubbled through a cylindrical, coarse glass frit into a solvent (decalin) in which radical scavengers were dissolved. The smoke then exited this solvent and was passed through a second flask, in which a fluorescent probe that fluoresces upon oxidation by radicals was used (Dihydrorhodamine 6G (DHR 6G), purchased from Molecular Probes). The variation of fluorescent signal corresponds directly to the radical content of the cigarette smoke, and thus a measure of the reduction of radicals by the radical scavenger is measured. Signals were measured every 10 seconds.\nTests were conducted to study the sensitivity of the test apparatus in Example 2 to varying concentrations of Vitamin E as a radical scavenger to scavenge radicals present in cigarette smoke (predominantly peroxyl radical). The cigarette smoke was bubbled through a cylindrical, coarse glass frit into a solvent (decalin) in which radical scavengers were dissolved. […] The variation of fluorescent signal corresponds directly to the radical content of the cigarette smoke, and thus a measure of the reduction of radicals by the radical scavenger is measured. Signals were measured every 10 seconds."}
{"substance": "Vitamin E", "values": [{"measurement": "Change of fluorescence signal on doubling the scavenger concentration", "value": "very small deflection"}]}
